Data on twelve compounds can be found in PubChem BioAssay (NCI).

Holding throughout (assay): inhibition of tumour cell growth, NCI panel, 48 h
In assay [1] the test system is NCI-H522 lung.
The subject of assay [2] is MDA-N.
Assay [3] deals with HS 578T breast.
Assay [4] has as its system CCRF-CEM leukemia.
The subject of assay [5] is SNB-19 CNS.
Assay [6] relates to IGROV1 ovarian.
The subject of assay [7] is LOX IMVI melanoma.
In assay [8] the test system is OVCAR-4 ovarian.
For assay [9], the system named is SF-295 CNS.
The subject of assay [10] is SW-620 colon.
In assay [11] the test system is OVCAR-3 ovarian.
For assay [12], the system named is MDA-MB-231 breast.
The subject of assay [13] is MCF7 breast.
The subject of assay [14] is SR leukemia.
The subject of assay [15] is K-562 leukemia.

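Protocol summary: plate cells (96-well), add compound at 5 concentrations, incubate 48 h, interpolate endpoints linearly. TGI is the concentration that stops growth completely.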

With `CN(C)c1ccc(NN=C2SC(=Nc3ccccc3)C(=Nc3ccccc3)S2)cc1`, the TGI in [1], in assay [2], in [3], in assay [4], in assay [5] and in assay [6] was over 100 µM throughout. The TGI in assay [7], in assay [8], in [9] and in assay [10] was over 100 µM each time.

Turning to `CCC(C=O)P1(=O)OC(C)(C)CN1C(C)(C)C` (configuration not stated), the TGI in assay [11] is 81.3 µM; in assay [5], over 100 µM; in assay [6], over 100 µM; in assay [12], over 100 µM; in assay [13] it was over 100 µM; in [7], over 100 µM. Further, the TGI in assay [14], in [8], in assay [15], in assay [9] and in assay [10] was over 100 µM each time.

`O=C(CSc1nnc(Cc2ccccc2)o1)Nc1ccccc1`: the TGI in assay [1], in [11], in assay [4], in assay [6], in assay [7] and in [8] was over 100 µM throughout. The TGI in [15] and in [9] was over 100 µM throughout.

In the case of `O=C1C(Cl)=C(Nc2ccc(S(=O)(=O)O)cc2)C(=O)c2ccccc21`, the TGI in [1] was 33.5 µM; in assay [11] it was 43.4 µM; in assay [3], 52.8 µM; in [4] it was over 100 µM; in assay [5] it was over 100 µM; in assay [6], over 100 µM. Besides, the TGI in assay [12] is over 100 µM; in assay [13], 49.1 µM; in assay [7] it was 80 µM; in assay [14], over 100 µM; in [8], over 100 µM; in assay [15], 94.2 µM. Further, the TGI in [9] was determined as 82.5 µM; in assay [10] it was 51.1 µM.

Consider `O=C(NNCC(O)COc1ccccc1)c1ccccc1` (configuration not stated), for which the TGI in assay [1], in assay [2], in [11], in assay [4], in assay [5] and in assay [6] was over 100 µM throughout. Moreover, the TGI in [12], in [13], in assay [7], in assay [8], in assay [15] and in assay [9] was over 100 µM each time. The compound also registered a TGI in assay [10] of over 100 µM.

For `CC(=O)Oc1cc2c(cc1OC(C)=O)OCC(c1ccccc1)C2` (configuration not stated), the TGI in assay [1] was determined as 7.47 µM; in assay [11], 58.9 µM; in assay [4] it was 15.1 µM; in assay [5], 48.5 µM; in [6], 74.1 µM; in assay [13], 66.8 µM. For the same compound, the TGI was 46 µM in assay [7]; 55.4 µM in [8]; 80.1 µM in assay [15]; 49.8 µM in assay [9]; 18.5 µM in assay [10].

With `O=c1[nH]cc(COCCCO)c(=O)[nH]1`, the TGI in assay [1], in assay [11], in assay [4], in assay [5], in assay [6] and in assay [7] was over 100 µM throughout. Further, the TGI in assay [14], in assay [8], in assay [15], in [9] and in assay [10] was over 100 µM each time.

Take `CC1=NNC(=O)C1C1CC(c2c[nH]c3ccccc23)=NNC1=O` (configuration not stated): the TGI in assay [1], in assay [2], in [11], in assay [3], in assay [4] and in [5] was over 100 µM in each case. In addition, the TGI in assay [6], in [12], in assay [15], in assay [9] and in assay [10] was over 100 µM in each case.

Turning to `CC(=O)CN(Cc1cc(C)c2c(c1)c1ccccc1n2Cc1ccccc1)S(=O)(=O)c1ccc(C)cc1`, the TGI in assay [1], in assay [11], in assay [4], in [5], in assay [6] and in [14] was over 100 µM throughout. In addition, the TGI in assay [8], in [15], in [9] and in [10] was over 100 µM each time.

`COC(=O)c1onc(-c2c(OC)cc(OC)cc2OC)c1C(=O)OC`: the TGI in [1], in assay [11], in assay [4], in assay [5], in assay [6] and in [7] was over 100 µM in each case. Moreover, the TGI in [14], in assay [8], in assay [15], in assay [9] and in [10] was over 100 µM in each case.

For the compound `CCCNC(=O)C(C)C1CCC2(C)C=CC(=O)C(C)=C2C1O` (configuration not stated), the TGI in assay [1], in [11], in assay [4], in [5], in assay [6] and in [13] was over 100 µM throughout. Moreover, the TGI in assay [7], in assay [8], in assay [15], in assay [9] and in assay [10] was over 100 µM each time.

For the compound `CC1(C)OC(=O)C(C#N)=C1/C=C/c1coc2ccc(Cl)cc2c1=O`, the TGI in [1] is over 100 µM; in assay [11], 46.2 µM; in assay [4] it was 87 µM; in assay [5] it was over 100 µM; in assay [6], over 100 µM; in assay [7] it was 40.5 µM. In addition, the TGI in [14] is over 100 µM; in assay [8], 55 µM; in assay [15] it was over 100 µM; in [9] it was over 100 µM; in [10], over 100 µM.
